Experimental findings from patent publication US12366579B2, “Sulfur-heterocycle exchange chemistry and uses thereof” (University of Virginia Patent Foundation, priority 2019, dated 2025) are described below.

Each structure is given as a SMILES string. Entries after “also recorded” stand apart in the source; their conditions may differ.

One assay deals with EDC3 (Homo sapiens, UniProt Q96F86). The experiment in a line: Chemical proteomics analysis of EDC3 using EKT-231 and HHS-465. In kind it is binding. The following applies: FIG. 46B. From the text: FIGS. 46A and 46B: Inhibition of mRNA decapping protein 3 (EDC3) Y475 by EKT-231. FIG. 46A is a schematic drawing of the chemical structure of EKT-231. FIG. 46B is a series of graphs showing the chemical proteomics analysis of EDC3 using EKT-231 and HHS-465.
Sequence of EDC3 (Q96F86 whole entry, the tested form may be a part): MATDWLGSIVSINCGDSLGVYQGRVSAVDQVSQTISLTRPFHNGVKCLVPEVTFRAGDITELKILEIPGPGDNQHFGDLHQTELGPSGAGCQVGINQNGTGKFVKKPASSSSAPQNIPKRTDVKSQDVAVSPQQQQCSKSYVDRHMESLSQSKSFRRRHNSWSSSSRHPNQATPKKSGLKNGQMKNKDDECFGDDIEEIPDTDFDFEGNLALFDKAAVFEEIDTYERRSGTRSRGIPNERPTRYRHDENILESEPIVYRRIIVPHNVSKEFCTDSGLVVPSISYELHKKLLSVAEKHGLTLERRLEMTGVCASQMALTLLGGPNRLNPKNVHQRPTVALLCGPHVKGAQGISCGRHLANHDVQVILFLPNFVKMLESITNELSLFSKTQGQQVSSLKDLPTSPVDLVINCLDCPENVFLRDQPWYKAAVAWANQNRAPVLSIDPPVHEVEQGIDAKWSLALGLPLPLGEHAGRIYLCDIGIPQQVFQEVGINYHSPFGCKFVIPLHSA
In addition, SuTEx fragment EKT231 (see FIG. 46A) modifies EDC3 at tyrosine 475.

Assay [1] deals with T1, recombinant GSTP1 lysates (Homo sapiens, UniProt P09211).
T1 construct: FLAG (C); host or cells: HEK293T, transient transfection; soluble proteome used unpurified
T1 sequence (P09211 whole entry): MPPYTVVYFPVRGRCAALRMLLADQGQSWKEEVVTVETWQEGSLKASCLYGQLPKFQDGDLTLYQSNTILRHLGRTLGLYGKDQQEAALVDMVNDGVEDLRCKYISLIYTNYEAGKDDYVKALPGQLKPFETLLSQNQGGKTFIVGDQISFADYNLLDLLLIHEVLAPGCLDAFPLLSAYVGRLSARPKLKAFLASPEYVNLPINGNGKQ
The experiment in a line: GSTP1 biochemical substrate assay (GSH conjugation to BDNB). To be noted: negative control probes; highest concentration tested 100 μM. As to the method:
GSTP1 Biochemical Substrate Assay
Recombinant GSTP1-HEK293T soluble cell proteomes were diluted to 1 mg ml^−1 in assay buffer (100 mM NaH2PO4, pH 7.0). Samples were treated with inhibitor at indicated concentrations for 30 min at 37° C. GSH stock solution (250 mM in water) was diluted to 4 mM in assay buffer and 25 μl of diluted GSH solution was added to each sample. A substrate stock solution of 75 mM 1-bromo-2,4-dinitrobenzene […] in ethanol was diluted to 2 mM in assay buffer. Samples (25 μl) were aliquoted into a 96-well plate and spun briefly via centrifuge. Next, 50 μl of 2 mM BDNB was added to each well and the reaction was monitored in kinetic mode by measuring absorbance at 340 nm for 10 min on a BMG Labtech CLARIOstar plate reader (BMG Labtech, Cary, North Carolina, United States of America).

The target in a further assay is T2, PLD3 (Y437) (Homo sapiens, UniProt Q8IV08).
T2 construct: endogenous in cells; host or cells: DM93 melanoma cells, soluble proteome (lysate)
T2 sequence (Q8IV08 whole entry): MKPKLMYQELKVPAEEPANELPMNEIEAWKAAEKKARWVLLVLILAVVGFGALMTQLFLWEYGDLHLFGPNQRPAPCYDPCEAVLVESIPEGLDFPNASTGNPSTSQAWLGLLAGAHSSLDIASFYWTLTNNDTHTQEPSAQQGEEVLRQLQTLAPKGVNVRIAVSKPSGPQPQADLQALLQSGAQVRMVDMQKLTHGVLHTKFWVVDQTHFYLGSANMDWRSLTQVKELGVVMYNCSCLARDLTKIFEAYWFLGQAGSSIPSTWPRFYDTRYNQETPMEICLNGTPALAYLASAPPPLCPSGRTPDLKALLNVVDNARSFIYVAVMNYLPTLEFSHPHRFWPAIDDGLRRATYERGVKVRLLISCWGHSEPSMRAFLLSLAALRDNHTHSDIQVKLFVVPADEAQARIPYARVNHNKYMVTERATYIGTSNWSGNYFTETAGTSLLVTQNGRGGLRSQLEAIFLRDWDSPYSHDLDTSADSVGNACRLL
The experiment in a line: Competitive chemical proteomics of SuTEx fragments vs HHS-482, PLD3 site. It counts as binding. To be noted: fragment 50 μM, 30 min, 37° C. The method, then: Heavy and light proteomes (432 μl of each) were diluted to 2.3 mg ml^−1 in PBS and sample aliquots (432 μl) were treated with SuTEx fragment at the indicated concentrations (5 μl, 100× stock in DMSO), mixed gently and incubated for 30 min at 37° C. Samples were then treated with HHS-482 (5 μL, 5 mM stock in DMSO) for 30 min at 37° C. Probe-modified proteomes were conjugated to desthiobiotin-PEG3-azide followed by enrichment of probe-modified peptides for nano-electrospray ionization-LC-MS/MS analyses as previously described^57.
The chemical proteomic method for functional tyrosine profiling^72 was tailored to investigate AG/LG effects on SuTEx fragment reactivity in complex proteomes. In brief, isotopically light and heavy soluble proteomes from DM93 melanoma cells cultured by stable isotopic labeling by amino acids in cell culture (SILAC^80) media were used for quantitative liquid chromatography-mass spectrometry (LC-MS) studies. […] Proteomes were digested with trypsin protease, HHS-482-modified peptides enriched by avidin chromatography and analyzed by high-resolution LC-MS/MS and bioinformatics as described hereinabove.
To evaluate substituent effects on proteome activity, reactivity profiles of each respective SuTEx fragment were compared across >1500 total distinct HHS-482-modified tyrosine sites from >650 detected proteins. […]

Assay [2] in a line: HPLC assay for solution reactivity of sulfonyl triazole fragments with p-cresol. To be noted: HPLC assay, TMG base. It counts as physicochemical. The method, then:
HPLC Assay for Profiling Solution Reactivity and Stability of Sulfonyl Triazole Fragments
The following reagents were prepared and stored on ice prior to use. 0.1 M solution of caffeine in acetonitrile, 1.0 M solution of n-butylamine, p-cresol, tetramethylguanidine […], 1 M HOAc in ACN and 10 mM solution of SuTEx fragment in DMF-ACN mixture (10:90, v/v). 500 μL of fragment solution was transferred to a dram vial on ice. To the mixture, 5.5 μL of TMG and 5.5 μL of p-cresol or n-butylamine was added and solutions were stirred on ice for 6 h. To monitor reactivity, 50 μL aliquots were removed at indicated time points and quenched with 10 μL of a 1:1 mixture of caffeine and HOAc. Samples were injected (1 μL) and analyzed by reverse-phase HPLC on a Shimadzu 1100 Series spectrometer (Shimadzu, Kyoto, Japan) with UV detection at 254 nm. Reaction progress was evaluated by monitoring consumption of starting material (SuTEx fragment) normalized to caffeine standard. Chromatographic separation was performed using a Phenomenex Kinetex C18 column (2.6 μm, 50×4.6 mm) (Phenomenex, Torrance, California, United States of America). Mobile phases A and B were composed of H2O+0.1% HOAc and ACN+0.1% HOAc, respectively. Samples were analyzed using the following analytical conditions: using a flow rate of 0.8 ml min^−1, the gradient was as follows: 0-0.5 min, 15% B; 0.5-6.5 min 85% B; 6.5-7 min 100% B: 7-8.5 min 100% B; 8.5-9 min 15% B; 9-9.8 min 15% B.

In the case of `N#Cc1ccc(S(=O)(=O)n2cc(-c3cccc(Cl)c3)nn2)cc1` [EKT231], the “tyrosine residue of EDC3 modified” value on EDC3 was found to be 475.

For `O=S(=O)(C1CC1)n1cnc(-c2ccc(C(F)(F)F)cc2)n1` [JWB146, 1-(Cyclopropylsulfonyl)-3-(4-(trifluoromethyl)phenyl)-1H-1,2,4-triazole], the “inhibitory activity against GSTP1” value in assay [1] was “lack of activity; also recorded: did not show inhibitory activity”. The “SILAC ratio (SR) at tyrosine competed site PLD3 Y437” value at PLD3 (Y437) is reported as above 6. For the same compound, the “solution reactivity with p-cresol” value in assay [2] was “largely unreactive”.
